The values that follow are results of earlier work, collected in US8828355B2, “Imaging reporters of transgene expression” (University of Utah Research Foundation, priority 2004, dated 2014).

As a reminder, the Kd is a measure of binding affinity in units of concentration.

The target of series [1] is Maltose binding protein (Escherichia coli, UniProt P0AEX9). Particulars: specificity.
Series [2] has as its target Mutant maltose binding protein, combination of both these mutations (Escherichia coli, UniProt P0AEX9, DEL198-201/M347A/Q351A/Y202G). Particulars: read-out: KD for maltotriose.

In the case of `OC[C@H]1O[C@@H](O[C@H]2[C@H](O)[C@@H](O)C(O)O[C@@H]2CO)[C@H](O)[C@@H](O)[C@H]1O` (stereo partly shown) [lactose], in series [1], the “binding to maltose binding protein” value was “not to bind”.
As for `OC[C@H]1O[C@H](O[C@H]2[C@H](O)[C@@H](O)[C@H](O)O[C@@H]2CO)[C@H](O)[C@@H](O)[C@@H]1O` [maltose], for the setting “infused”, the “clearance from the body” value is on record as “rapidly cleared from the body by the kidney” and the distribution after infusion result is on record as “distributed in the extracellular space”. Besides, under “intravenous infusion”, the “safety of intravenous infusion” value is “safe”.
With `OC[C@H]1O[C@@](CO)(O[C@H]2O[C@H](CO)[C@@H](O)[C@H](O)[C@H]2O)[C@@H](O)[C@@H]1O` [sucrose], the “binding to maltose binding protein” value in series [1] was “not to bind”.
As to `OC[C@H]1O[C@H](O[C@H]2O[C@H](CO)[C@@H](O)[C@H](O)[C@H]2O)[C@H](O)[C@@H](O)[C@@H]1O` [trehalose], in series [1], the “binding to maltose binding protein” value is recorded as “not to bind”.
Consider maltotriose, for which the equilibrium dissociation constant (Kd) in series [2] was 6 nM.
